Key:
[1] = Water contact angle and degree of molecular surface coating of carrier; type: physicochemical; settings: single component, Table 6 footnote
Method: Advantageously, the carrier particles and the lubricant particles are mixed until the degree of molecular surface coating is more than 10% as determined by water contact angle measurement. Preferably, carrier particles and lubricant particles made of magnesium stearate are mixed until the water contact angle of the ‘coated’ carrier particles is more than 36° corresponding to more than 10% degree of molecular surface coating; more preferably, the water contact angle should be more than 50° corresponding to more than 23% decree of molecular surface coating.
40.528 kg (99.75% w/w) of α-Lactose monohydrate fraction 90-150 μm and 0.102 kg (0.25% w/w) of magnesium stearate were mixed in a Turbula mixer T 100 at 16 r.p.m. for several hours. At different mixing times samples were withdrawn and tested for uniformity of distribution of magnesium stearate, particle size, water contact angle and degree of molecular surface coating calculated according to lassie et al. (Transactions of the Faraday Society 40; 546, 1944). To validate the process, three batches (40 kg) of the carrier were prepared.

[2] = tested on: healthy volunteers; experiment: Acute tolerance trial in healthy volunteers; type: in vivo, humans; settings: single dose 25.72 mg lactose and 0.065 mg magnesium stearate via Pulvinal inhaler
Method: Furthermore, acute and long term tolerance trials were carried out to evaluate toxicity of magnesium stearate in humans.
In the former, 18 healthy volunteers, included in a double blind randomised controlled cross-over design study, received a single dose containing 25.72 mg of lactose and 0.065 mg of magnesium stearate via Pulvinal® inhaler. The introduction of 0.25% magnesium stearate in powdery pharmaceutical formulation resulted to be safe.

[3] = tested on: dog; experiment: Toxicity studies in dog; type: in vivo

Compound	water contact angle [1]	Safety, acute tolerance [2]	Safety of the respirable amount [3]
O.OC[C@H]1O[C@@H](O[C@H]2[C@H](O)[C@@H](O)[C@@H](O)O[C@@H]2CO)[C@H](O)[C@@H](O)[C@H]1O [α-Lactose monohydrate]	α-Lactose monohydrate water contact angle 12°	–	–
Magnesium stearate	Magnesium stearate water contact angle 118°	safe	safe
